# Biological target: human APJ receptor (Homo sapiens (Human), UniProt P35414)
# Experiment: [35S]GTPγS binding assay on membranes from CHO cells stably expressing human APJ receptor
# Format: biochemical
# Conditions: read-out: Activity hAPJ SPA EC50 IP
# Outline: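 Membranes from CHO cells stably expressing human APJ incubated with ligand, 0.2 nM [35S]GTPγS and WGA SPA beads in HEPES pH 7.5 with 5 mM MgCl2, 200 mM NaCl, 3 μM GDP, 90 min at RT. Nonspecific binding defined with 100 μM GTPγS; EC50 by non-linear regression.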
# human APJ receptor, sequence (P35414 whole entry): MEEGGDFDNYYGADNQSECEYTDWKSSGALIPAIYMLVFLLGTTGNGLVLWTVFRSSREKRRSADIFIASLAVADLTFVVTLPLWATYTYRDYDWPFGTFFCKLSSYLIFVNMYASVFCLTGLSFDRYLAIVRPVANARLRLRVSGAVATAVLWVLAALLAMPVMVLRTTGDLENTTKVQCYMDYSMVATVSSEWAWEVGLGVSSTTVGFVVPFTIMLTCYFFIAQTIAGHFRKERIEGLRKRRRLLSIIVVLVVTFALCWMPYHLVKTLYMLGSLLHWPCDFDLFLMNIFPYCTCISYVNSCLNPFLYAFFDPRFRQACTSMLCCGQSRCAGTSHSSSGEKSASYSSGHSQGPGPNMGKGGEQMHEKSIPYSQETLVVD
row,Compound,EC50 [nM]
1,"(1R,2S)-N-(4-([1,1′-bi(cyclopropyl)]-1-yl)-5-((2S)-1,4-dioxan-2-yl)-4H-1,2,4-triazol-3-yl)-1-(5-chloro-2-pyrimidinyl)-1-methoxy-2-propanesulfonamide or (1R,2S)-N-(4-([1,1′-bi(cyclopropyl)]-1-yl)-5-((2R)-1,4-dioxan-2-yl)-4H-1,2,4-triazol-3-yl)-1-(5-chloro-2-pyrimidinyl)-1-methoxy-2-propanesulfonamide [Example 326.0]",1700
2,"COc1cccc(OC)c1-n1c(NS(=O)(=O)[C@@H](C)[C@H](C)c2cnc(C)cn2)nnc1[C@H]1CCCOC1 (single isomer, unassigned) [Example 135.0, (2S,3R)-N-(4-(2,6-dimethoxyphenyl)-5-((R)-tetrahydro-2H-pyran-3-yl)-4H-1,2,4-triazol-3-yl)-3-(5-methylpyrazin-2-yl)butane-2-sulfonamide or (2S,3R)-N-(4-(2,6-dimethoxyphenyl)-5-((S)-tetrahydro-2H-pyran-3-yl)-4H-1,2,4-triazol-3-yl)-3-(5-methylpyrazin-2-yl)butane-2-sulfonamide]",35
3,"(1R,2S)-1-(5-chloropyrimidin-2-yl)-1-methoxy-N-(4-(1-methylcyclopropyl)-5-((2S,5S)-5-methyltetrahydrofuran-2-yl)-4H-1,2,4-triazol-3-yl)propane-2-sulfonamide or (1R,2S)-1-(5-chloropyrimidin-2-yl)-1-methoxy-N-(4-(1-methylcyclopropyl)-5-((2R,5R)-5-methyltetrahydrofuran-2-yl)-4H-1,2,4-triazol-3-yl)propane-2-sulfonamide [Example 200.0]",290
4,"(2R)-N-(4-(2,6-dimethoxyphenyl)-5-(tetrahydro-2H-pyran-4-yl)-4H-1,2,4-triazol-3-yl)-1-(5-fluoro-2-pyrimidinyl)-2-propanesulfonamide or (2S)-N-(4-(2,6-dimethoxyphenyl)-5-(tetrahydro-2H-pyran-4-yl)-4H-1,2,4-triazol-3-yl)-1-(5-fluoro-2-pyrimidinyl)-2-propanesulfonamide [Example 16.0]",380
5,"CO[C@H](c1ncc(Cl)cn1)[C@H](C)S(=O)(=O)Nc1nnc([C@H]2CCOC2)n1C(C)C (single isomer, unassigned) [Example 298.0, (1R,2S)-1-(5-chloropyrimidin-2-yl)-N-(4-isopropyl-5-((R)-tetrahydrofuran-3-yl)-4H-1,2,4-triazol-3-yl)-1-methoxypropane-2-sulfonamide or (1R,2S)-1-(5-chloropyrimidin-2-yl)-N-(4-isopropyl-5-((S)-tetrahydrofuran-3-yl)-4H-1,2,4-triazol-3-yl)-1-methoxypropane-2-sulfonamide]",1890
6,"COc1cccc(OC)c1-n1c(NS(=O)(=O)CCc2ncc(Cl)cn2)nnc1[C@@H]1COCCO1 (mixture of isomers) [Example 387.0, 2-(5-chloro-2-pyrimidinyl)-N-(4-(2,6-dimethoxyphenyl)-5-((2R)-1,4-dioxan-2-yl)-4H-1,2,4-triazol-3-yl)ethanesulfonamide and 2-(5-chloro-2-pyrimidinyl)-N-(4-(2,6-dimethoxyphenyl)-5-((2S)-1,4-dioxan-2-yl)-4H-1,2,4-triazol-3-yl)ethanesulfonamide]",48
7,"COc1cccc(OC)c1-n1c(NS(=O)(=O)[C@@H](C)[C@@H](OC(C)C)c2ncc(C)cn2)nnc1[C@H]1CCCOC1 (single isomer, unassigned) [Example 136.0, (1S,2S)-N-(4-(2,6-dimethoxyphenyl)-5-((R)-tetrahydro-2H-pyran-3-yl)-4H-1,2,4-triazol-3-yl)-1-isopropoxy-1-(5-methylpyrimidin-2-yl)propane-2-sulfonamide or (1S,2S)-N-(4-(2,6-dimethoxyphenyl)-5-((S)-tetrahydro-2H-pyran-3-yl)-4H-1,2,4-triazol-3-yl)-1-isopropoxy-1-(5-methylpyrimidin-2-yl)propane-2-sulfonamide]",130
8,"COc1cccc(OC)c1-n1c(NS(=O)(=O)[C@@H](C)[C@H](C)c2ncc(Cl)cn2)nnc1[C@H]1CCCCO1 (single isomer, unassigned) [Example 87.0, (2S,3R)-3-(5-chloropyrimidin-2-yl)-N-(4-(2,6-dimethoxyphenyl)-5-((S)-tetrahydro-2H-pyran-2-yl)-4H-1,2,4-triazol-3-yl)butane-2-sulfonamide or (2S,3R)-3-(5-chloropyrimidin-2-yl)-N-(4-(2,6-dimethoxyphenyl)-5-((S)-tetrahydro-2H-pyran-2-yl)-4H-1,2,4-triazol-3-yl)butane-2-sulfonamide]",2.4
9,"(2S,3R)-3-(5-chloropyrimidin-2-yl)-N-(4-(2,6-dimethoxyphenyl)-5-((R)-3-oxoisoindolin-1-y1)-4H-1,2,4-triazol-3-yl)butane-2-sulfonamide or (2S,3R)-3-(5-chloropyrimidin-2-yl)-N-(4-(2,6-dimethoxyphenyl)-5-((S)-3-oxoisoindolin-1-yl)-4H-1,2,4-triazol-3-yl)butane-2-sulfonamide [Example 235.0]",830
10,"COc1cccc(OC)c1-n1c(NS(=O)(=O)[C@@H](C)[C@H](C)c2ncc(C)cn2)nnc1[C@H]1CN(S(C)(=O)=O)CCO1 (single isomer, unassigned) [Example 230.0]",450
11,"(1R,2S)-1-(5-chloropyrimidin-2-yl)-N-(5-((S)-5,5-dimethyltetrahydrofuran-2-yl)-4-(tetrahydro-2H-pyran-4-yl)-4H-1,2,4-triazol-3-yl)-1-methoxypropane-2-sulfonamide or (1R,2S)-1-(5-chloropyrimidin-2-yl)-N-(5-((R)-5,5-dimethyltetrahydrofuran-2-yl)-4-(tetrahydro-2H-pyran-2-yl)-4H-1,2,4-triazol-3-yl)-1-methoxypropane-2-sulfonamide [Example 221.0]",560
12,"COc1cccc(OC)c1-n1c(NS(=O)(=O)[C@@H](C)[C@H](C)c2ncc(C)cn2)nnc1[C@H]1CCOC1 (single isomer, unassigned) [Example 54.0, (2S,3R)-N-(4-(2,6-dimethoxyphenyl)-5-((R)-tetrahydrofuran-3-yl)-4H-1,2,4-triazol-3-yl)-3-(5-methylpyrimidin-2-yl)butane-2-sulfonamide or (2S,3R)-N-(4-(2,6-dimethoxyphenyl)-5-((S)-tetrahydrofuran-3-yl)-4H-1,2,4-triazol-3-yl)-3-(5-methylpyrimidin-2-yl)butane-2-sulfonamide]",37
13,"Cc1cnc([C@@H](C)[C@H](C)S(=O)(=O)Nc2nnc([C@H]3CCCO3)n2-c2c(F)cncc2F)nc1 [Example 26.0, (2S,3R)-N-(4-(3,5-difluoro-4-pyridinyl)-5-((2R)-tetrahydro-2-furanyl)-4H-1,2,4-triazol-3-yl)-3-(5-methyl-2-pyrimidinyl)-2-butanesulfonamide]",870
14,"COc1cccc(OC)c1-n1c(NS(=O)(=O)CCc2ncc(Cl)cn2)nnc1[C@H]1CCOC1 (single isomer, unassigned) [Example 390.0]",330
15,"COc1cccc(OC)c1-n1c(NS(=O)(=O)CCc2ncc(Cl)cn2)nnc1[C@@H]1COCCO1 (single isomer, unassigned) [Example 424.0, 2-(5-chloro-2-pyrimidinyl)-N-(4-(2,6-dimethoxyphenyl)-5-((2R)-1,4-dioxan-2-yl)-4H-1,2,4-triazol-3-yl)ethanesulfonamide or 2-(5-chloro-2-pyrimidinyl)-N-(4-(2,6-dimethoxyphenyl)-5-((2S)-1,4-dioxan-2-yl)-4H-1,2,4-triazol-3-yl)ethanesulfonamide]",52
16,"(1S,2S)-N-(4-(1,3-dimethoxy-2-propanyl)-5-((2R,5R)-5-methyltetrahydro-2-furanyl)-4H-1,2,4-triazol-3-yl)-1-(5-methyl-2-pyrimidinyl)-1-(2-propanyloxy)-2-propanesulfonamide or (1S,2S)-N-(4-(1,3-dimethoxy-2-propanyl)-5-((2S,5S)-5-methyltetrahydro-2-furanyl)-4H-1,2,4-triazol-3-yl)-1-(5-methyl-2-pyrimidinyl)-1-(2-propanyloxy)-2-propanesulfonamide [Example 358.0]",430
17,"(1R,2S)-N-(4-(2,6-dimethoxyphenyl)-5-((R)-1,4-dioxan-2-yl)-4H-1,2,4-triazol-3-yl)-1-methoxy-1-(5-methylpyrimidin-2-yl)propane-2-sulfonamide or (1R,2S)-N-(4-(2,6-dimethoxyphenyl)-5-((S)-1,4-dioxan-2-yl)-4H-1,2,4-triazol-3-yl)-1-methoxy-1-(5-methylpyrimidin-2-yl)propane-2-sulfonamide [Example 202.0]",120
18,"COc1cccc(OC)c1-n1c(NS(=O)(=O)[C@@H](C)[C@@H](OC(C)C)c2ncc(Cl)cn2)nnc1[C@H]1CCOC1 (single isomer, unassigned) [Example 282.0, (1S,2S)-1-(5-chloropyrimidin-2-yl)-N-(4-(2,6-dimethoxyphenyl)-5-((R)-tetrahydrofuran-3-yl)-4H-1,2,4-triazol-3-yl)-1-isopropoxypropane-2-sulfonamide or (1S,25)-1-(5-chloropyrimidin-2-yl)-N-(4-(2,6-dimethoxyphenyl)-5-((S)-tetrahydrofuran-3-yl)-4H-1,2,4-triazol-3-yl)-1-isopropoxypropane-2-sulfonamide]",1.6
19,"CO[C@H](c1ncc(Cl)cn1)[C@H](C)S(=O)(=O)Nc1nnc([C@H]2CCOC2)n1C1(C)CC1 (single isomer, unassigned) [Example 125.0, (1R,2S)-1-(5-chloropyrimidin-2-yl)-1-methoxy-N-(4-(1-methylcyclopropyl)-5-((R)-tetrahydrofuran-3-yl)-4H-1,2,4-triazol-3-yl)propane-2-sulfonamide or (1R,2S)-1-(5-chloropyrimidin-2-yl)-1-methoxy-N-(4-(1-methylcyclopropyl)-5-((S)-tetrahydrofuran-3-yl)-4H-1,2,4-triazol-3-yl)propane-2-sulfonamide]",540

# From patent publication US10150760B2, “Compounds for use in preparing heterocyclic triazole agonists of the APJ receptor” (AMGEN INC., priority 2016, dated 2018)
